Entries after “also recorded” stand apart in the source; their conditions may differ. Marks after values point to notes of the source that are not given here.
Legend:
S. cerevisiae JAY 270 = assay: Screening of growth in 24-well plates on YPDA; assay type: cell-based, Saccharomyces cerevisiae; settings: for Cell growth score (colony size): YPDA, 30° C., 24 h; for Concentration at which cell growth was reduced in the plate assay: molar equivalent of the % w/v value; for Effect on cell growth in the plate assay (words): tested concentrations
Procedure: Procedure: An inoculum culture of S. cerevisiae JAY 270 was grown in 100 mL of yeast extract-peptone-dextrose (YPD) medium (10 g/L yeast extract, 20 g/L peptone, 20 g/L glucose) in 200-mL serum bottles overnight in a shaker at 30° C. and 200 rpm. The cells were collected by centrifuging 10 min at 4000×g and 4° C. To wash off the medium residue, the cell pellet was resuspended in 30 mL of sterile 0.8% (w/v) NaCl solution and centrifuged at 4000×g for 10 min. The cell pellet was washed twice. Finally, the cell pellet was resuspended and diluted in 0.8% (w/v) NaCl to achieve cell concentrations of OD600=0.02 and 0.2.
The eight compounds were added in YPDA separately at 0.03%, 0.05%, 0.1%, and 0.2% (w/v). The standard control treatment contained only YPDA medium without addition of these compounds. Since the TrpOH and TyrOH stock solutions were dissolved in DMSO, the controls for those tests were YPDA with the same concentration of DMSO. A 3-mL aliquot of YPDA medium with or without the test compounds were loaded in each well of the 24-well plate.
Ten μL of the prepared S. cerevisiae JAY 270 cell suspension at OD600=0.02 or 0.2 was loaded onto the YPDA medium in each well of the 24-well plates. Then the plates were sealed with Parafilm and incubated at 30° C. for 24 h. There were four biological replicates for each treatment.
Yeast cell growth was evaluated by visual observation of the colony size in the well and scored as 0, +, ++, and +++.

S. mikatae JAY 1504 = assay: Serum-bottle cultivation in YPD, different yeast strains; assay type: cell-based; settings: 0.2%; for DCW / DCW Δ vs. ref / OD600 / OD600 Δ vs. ref: S. mikatae JAY 1504, YPD
Procedure: (§1) Analytical methods: Cell growth was evaluated by monitoring OD600 and cell dry mass concentration. For dry mass measurements, 1.0 mL of culture was transferred to a pre-dried and pre-weighed 2-mL centrifuge tube. The tubes were centrifuged for 10 min at 14000 rpm using a microcentrifuge, and then the cell pellets were dried in an oven for 3 days at 65° C. The cell dry mass was determined by subtracting the initial tube mass from the dried mass of tube with cells. The concentrations of glucose, ethanol, and glycerol were measured via HPLC (Shimadzu LC20A series) outfitted with a refractive index detector and using an Aminex HPX-87H (300×7.8 mm) organic acid column and Cation H+ guard cartridge (Bio Rad Laboratories, Hercules, CA). The column was maintained at 65° C. and the mobile phase was 5 mM sulfuric acid with a flow rate of 0.6 mL/min. Standard compound solutions were used to calibrate the HPLC. Each sample was analyzed three times by HPLC.
(§2) Procedure: Seven yeast strains (S. cerevisiae ATCC 26603, S. cerevisiae JAY 238, S. cerevisiae JAY 240, S. cerevisiae JAY 241, S. paradoxus JAY 1502, S. kudriavzezii JAY 1503, and S. mikatae JAY 1504) were pre-cultured in 30 mL of YPD medium in 100 mL serum bottle overnight in a shaker at 30° C. and 200 rpm. The precultured yeast cells of each strains were collected and washed twice. Finally, the cell pellet was resuspended in about 10 mL 0.8% (w/v) NaCl and the OD600 measured. TyrOH, PheOH, and TrpOH were added to 30 mL of YPD medium in 100-mL serum bottles at 0.2% (w/v) respectively. The same amount of DMSO was added in YPD medium and served as control to the TrpOH and TyrOH treatments. The prepared yeast cells were added to obtain the initial cell concentration at OD600=0.2. The serum bottles were sealed and cultured in a shaker at 30° C. and 200 rpm for 24 h. There were three biological replicates for each treatment.

S. paradoxus JAY 1502 = assay: as above; assay type: cell-based; settings: 0.2%; for DCW / DCW Δ vs. ref / OD600 / OD600 Δ vs. ref: S. paradoxus JAY 1502, YPD
Procedure: as §1, §2

S. kudriavzezii JAY 1503 = assay: as above; assay type: cell-based; settings: 0.2%; for DCW / DCW Δ vs. ref / OD600 / OD600 Δ vs. ref: S. kudriavzezii JAY 1503, YPD
Procedure: as §1, §2

[1] = S. paradoxus JAY 1502, YPD (Table 9B)
[2] = S. mikatae JAY 1504, YPD (Table 9B)
[3] = S. kudriavzezii JAY 1503, YPD (Table 9B)

## OCCc1c[nH]c2ccccc12 [TrpOH, tryptophol]
S. cerevisiae JAY 270; 0.03% (w/v)
  Cell growth score (colony size): +++
S. cerevisiae JAY 270; 0.05% (w/v)
  Cell growth score (colony size): ++
S. cerevisiae JAY 270; 0.10% (w/v)
  Cell growth score (colony size): +
S. cerevisiae JAY 270; 0.20% (w/v)
  Cell growth score (colony size): 0
S. cerevisiae JAY 270
  Concentration at which cell growth was reduced in the plate assay: 3.1 mM
S. cerevisiae JAY 270; 24-well plates
  Effect on cell growth in the plate assay (words): inhibited growth; also recorded: reduced the growth
S. cerevisiae JAY 270; w/v, 24-well plates
  Concentration at which cell growth was reduced/inhibited in the plate assay: 0.05%
S. mikatae JAY 1504; S. mikatae JAY 1504
  Cell growth: very low cell growth
S. mikatae JAY 1504
  DCW: 1.45 mg
  DCW Δ vs. ref: 43.3%
  OD600: 0.64
  OD600 Δ vs. ref: 28.1%
S. paradoxus JAY 1502; S. paradoxus JAY 1502
  Biomass Yield: 0.038 ± 0.001 g/g
  Biomass yield % change vs. control: −42* %
  EtOH yield: 0.417 ± 0.056 g/g
  EtOH yield % change vs. control: +7.2* %
  Glycerol yield increase from control: 71%
S. paradoxus JAY 1502
  DCW: 1.40 mg
  DCW Δ vs. ref: 52.8%
  OD600: 0.40
  OD600 Δ vs. ref: 18.0%
S. paradoxus JAY 1502; [1]
  Biomass Yield: 0.038 + 0.001 g/g
  Biomass yield Δ vs. ref: −42.0%
  Ethanol yield: 0.417 ± 0.056 g/g
  Ethanol yield Δ vs. ref: 7.2%
S. kudriavzezii JAY 1503; S. kudriavzezii JAY 1503
  Cell growth: very low cell growth
S. kudriavzezii JAY 1503
  DCW: 0.48 mg
  DCW Δ vs. ref: 18.6%
  OD600: 0.16
  OD600 Δ vs. ref: 9.9%

## OCCc1ccc(O)cc1 [TyrOH, Tyrosol]
S. cerevisiae JAY 270; 0.03% (w/v)
  Cell growth score (colony size): +++
S. cerevisiae JAY 270; 0.05% (w/v)
  Cell growth score (colony size): +++
S. cerevisiae JAY 270; 0.10% (w/v)
  Cell growth score (colony size): +++
S. cerevisiae JAY 270; 0.20% (w/v)
  Cell growth score (colony size): +
S. cerevisiae JAY 270
  Concentration at which cell growth was reduced in the plate assay: 7.2 mM
S. cerevisiae JAY 270; 24-well plates
  Effect on cell growth in the plate assay (words): inhibited growth; also recorded: reduced the growth
S. mikatae JAY 1504; S. mikatae JAY 1504
  Biomass Yield: 0.052 ± 0.000 g/g
  Biomass yield % change vs. control: −20* %
  EtOH yield: 0.359 ± 0.042 g/g
  EtOH yield % change vs. control: +6.7* %
  Glycerol yield: 0.036 ± 0.001 g/g
  Glycerol yield % change vs. control: −24* %
S. mikatae JAY 1504
  DCW: 2.65 mg
  DCW Δ vs. ref: 79.1%
  OD600: 1.75
  OD600 Δ vs. ref: 77.3%
S. mikatae JAY 1504; [2]
  Biomass Yield: 0.052 + 0.000 g/g
  Biomass yield Δ vs. ref: −20.1%
  Ethanol yield: 0.359 ± 0.042 g/g
  Ethanol yield Δ vs. ref: 6.7%
  Glycerol yield: 0.036 ± 0.001 g/g
  Glycerol yield Δ vs. ref: −23.65%
S. paradoxus JAY 1502; S. paradoxus JAY 1502
  Biomass Yield: 0.055 ± 0.000 g/g
  Biomass yield % change vs. control: −15* %
  EtOH yield: 0.410 ± 0.014 g/g
  Glycerol yield: 0.041 ± 0.001 g/g
  Glycerol yield % change vs. control: −9.9%
S. paradoxus JAY 1502
  DCW: 2.15 mg
  DCW Δ vs. ref: 81.1%
  OD600: 1.90
  OD600 Δ vs. ref: 85.5%
S. paradoxus JAY 1502; [1]
  Biomass Yield: 0.055 + 0.000 g/g
  Biomass yield Δ vs. ref: −15.4%
  Ethanol yield: 0.410 ± 0.014 g/g
  Ethanol yield Δ vs. ref: 5.4%
  Glycerol yield: 0.041 ± 0.001 g/g
  Glycerol yield Δ vs. ref: −9.89%
S. kudriavzezii JAY 1503; S. kudriavzezii JAY 1503
  Biomass Yield: 0.029 ± 0.000 g/g
  Biomass yield % change vs. control: −35* %
  EtOH yield: 0.388 ± 0.000 g/g
  EtOH yield % change vs. control: +7.8* %
  Glycerol yield: 0.056 ± 0.001 g/g
  Glycerol yield % change vs. control: +8.1%
S. kudriavzezii JAY 1503
  DCW: 2.10 mg
  DCW Δ vs. ref: 82.4%
  OD600: 0.82
  OD600 Δ vs. ref: 52.4%
S. kudriavzezii JAY 1503; [3]
  Biomass Yield: 0.029 + 0.000 g/g
  Biomass yield Δ vs. ref: −35.1%
  Ethanol yield: 0.388 ± 0.000 g/g
  Ethanol yield Δ vs. ref: 7.8%
  Glycerol yield: 0.056 ± 0.001 g/g
  Glycerol yield Δ vs. ref: 8.07%
